These results are taken from PMC2574930 (Cancer, 2008).

In one test the test system is sst4. Conditions: read-out: sst4 receptor subtype specificity (IC50); human receptor; cited from earlier work.
The next test has as its system sst3. The following applies: read-out: sst3 receptor subtype specificity (IC50); human receptor; cited from earlier work.
A further test has as its system sst1. The following applies: read-out: sst1 receptor subtype specificity (IC50); human receptor; cited from earlier work.
For the next test, the system named is sst5. Conditions: read-out: sst5 receptor subtype specificity (IC50); human receptor; cited from earlier work.
Another test has as its system sst2. Conditions: read-out: sst2 receptor subtype specificity (IC50); human receptor; cited from earlier work.
The subject of test [1] is ERK1/2 phosphorylation in KRJ-I cells. Description: ELISA. Format: cell-based, human.
The test system of test [2] is p21^WAF1/CIP1 transcript in NCI-H720 cells. Description: Real-time PCR p21WAF1/CIP1 transcripts, NCI-H720. Format: cell-based, human.
Test [3] has as its system ERK1/2 phosphorylation in NCI-H727 cells. In words: ELISA. Conditions: NCI-H727, 30 mins. Type of test: cell-based, human.
Test [4] has as its system Ki67 transcript in KRJ-I cells. In words: Real-time PCR Ki67 transcripts, KRJ-I. Type of test: cell-based, human.
Test [5] concerns p21^WAF1/CIP1 transcript in KRJ-I cells. In words: Real-time PCR p21WAF1/CIP1 transcripts, KRJ-I. Format: cell-based, human. Conditions: IC50 concentration, 24 hrs, p<0.01 vs. control, Mean±SEM, n=4.
Test [6] deals with Ki67 transcript in NCI-H720 cells. In words: Real-time PCR Ki67 transcripts, NCI-H720. Format: cell-based, human.
Test [7] has as its system p21^WAF1/CIP1 transcript in NCI-H727 cells. In words: Real-time PCR p21WAF1/CIP1 transcripts, NCI-H727. Format: cell-based, human. The following applies: NCI-H727, 24 hrs.
For another test, the system named is NCI-H727 cells. Description: MTT proliferation assay, NCI-H727. Format: cell-based, human. The following applies: 72 hours incubation, drug applied every 24 hrs, 10^−10 to 10^−6.

Where only a bound is given, the exact number is not on record here.

On to Somatostatin-14, for which the IC50 was 1.77 nM in the test with sst4; 1.2 nM in the test with sst3; 1.95 nM in the test on sst1; 1.41 nM in the test with sst5; 0.25 nM in the test on sst2.
With `CC(C)[C@@H]1NC(=O)[C@H](CCCCN)NC(=O)[C@@H](Cc2c[nH]c3ccccc23)NC(=O)[C@H](Cc2ccc(O)cc2)NC(=O)[C@@H](NC(=O)[C@H](N)Cc2ccc3ccccc3c2)CSSC[C@@H](C(=O)N[C@H](C(N)=O)[C@@H](C)O)NC1=O` [Lanreotide], in test [1] (IC50 concentration, 30 mins, p=0.05 vs. control, Mean±SEM, n=4), the “Activation of ERK1/2 signaling, vs. control” value was 25±8%. In addition, the IC50 in the test with sst4 is more than 1000 nM; in the test with sst3, 98 nM; in the test with sst1, more than 1000 nM; with sst5, 12.7 nM; with sst2 it was 0.75 nM. Moreover, the “p21^WAF1/CIP1 transcript levels increased, vs. control” value in test [2] (NCI-H720, IC50 concentration, 24 hr, p<0.01 vs. control, Mean±SEM, n=4) is 140±27%. The “ERK phosphorylation” value in [3] was “no effect”. Also, the “Ki67 transcript down regulated, vs. control” value in test [4] (IC50 concentration, 24 hrs, p<0.01 vs. control, Mean±SEM, n=4) is 73±12%. For the same compound, the “p21^WAF1/CIP1 transcripts elevated, vs. control” value in test [5] was determined as 175±21%. For the same compound, the “Ki67 transcript levels decreased, vs. unstimulated cells” value in test [6] (NCI-H720, IC50 concentration, 24 hr, p<0.01, Mean±SEM, n=4) worked out at 45±7%. The “p21^WAF1/CIP1 transcripts” value in test [7] is “not significantly up-regulated”. The “Effect on NCI-H727 proliferation” value with NCI-H727 cells is “No effect”.
On to `COc1cccc(-c2cc(=O)c3ccccc3o2)c1N` [PD98059], for which the “Inhibition of lanreotide-activated ERK1/2 signaling by PD98059” value in [1] (PD98059 pre-incubated 10 min prior to lanreotide) was “could be inhibited”. The “Reversal of lanreotide-induced p21^WAF1/CIP1 increase by PD98059” value in test [2] (NCI-H720, p<0.05 vs. lanreotide alone) is listed as “reversible”. Besides, the “Inhibition of lanreotide Ki67 down regulation by PD98059” value in test [4] (p<0.05 vs. lanreotide alone) was “inhibited”. Moreover, the “Ki67 transcript decrease by lanreotide when inhibited by PD98059” value in [6] (NCI-H720, lanreotide 24 hr with PD98059, p<0.05 vs. lanreotide alone) is recorded as 6±2%.
As for Somatostatin-28, the IC50 in the test on sst4 is 5.4 nM; in the test with sst3 it was 1.3 nM; in the test on sst1, 1.86 nM; with sst5, 0.4 nM; in the test with sst2 it was 0.31 nM.
